Values belong to the molecule of their own block, whether it stands above or below them.
Tests used:
[1] = tested on: parathyroid hormone (serum PTH); experiment: Serum PTH suppression in rat renal insufficiency model (7/8 nephrectomy, secondary hyperparathyroidism); assay type: in vivo, Female Sprague Dawley rats; conditions: for PTH T = 1 - T = 0: po, seven days
Description: (§1) Female Sprague Dawley rats were anesthesized, their right kidney removed and 2-3 branches of the left renal artery were ligated to achieve 7/8 nephrectomy. They were placed on a high phosphorous diet (0.6% Ca and 0.8 phosphorous). Approximately 3-6 weeks after surgery, rats were bled to screen serum PTH levels and rats with PTH levels between 100-500 pg/ml were selected for the study.
(§2) 1 6 Formula Ia, 10 μg/kg/day, po
(§3) 2 6 Formula Ia, 1 μg/kg/day, po
(§4) 3 6 Formula Ia, 0.1 μg/kg/day, po
(§5) There was a pre-bleed (T=0) and each group was dosed daily for seven days by oral gavage with either the compound of Formula Ia (10, 1 or 0.1 μg/kg/day), vehicle control or 1,24(OH)2 vitamin D3 positive control. Compounds were predissolved in ethanol and diluted with vehicle (Miglyol 812) followed by evaporation of the ethanol.
(§6) After the last day of dosing, the animals were bled again (T=1) and sacrificed. Serum PTH assays were done with Nichols Institute Diagnostic Kit #40-2240. Serum calcium assays were done with Sigma Diagnostic Kit #587 with o-cresophthaleiri. Serum creatinine assays were done with Sigma Diagnostic Kit #1600-320 with […].

[2] = tested on: MCF-7 cells; experiment: Cell proliferation assay in MCF-7 breast cancer cells; assay type: cell-based, human; conditions: for IC50: Homo sapiens, MCF7, 168 h, MCF-7, 7 days, MTT, read-out: IC50 (half-maximal reduction in 570 nm absorbance)
Description: MCF-7 cells are human mammary carcinoma cells that are positive for estrogen receptors. The potential activity of vitamin D3 analogs against breast cancer was assessed from inhibition of proliferation of MCF-7 cells in culture.
(§7) MCF-7 cells were plated at 5000 cells/well in 96-well plates and incubated at 37° C. in 5% CO2 /95% air in Dulbecco's Modified Eagle Medium containing 10% fetal bovine serum 700 nM insulin, 2 mM glutamine, 0.1 mM MEM non-essential amino acids and 1 mM sodium pyruvate. Stock solutions of vitamin D3 analogs were prepared at a concentration of 10 mM in absolute ethanol and stored at -20° C. under argon. One day after plating, MCF-7 cells were refed with either control medium or medium containing varying concentrations of the vitamin D3 analog.
For each vitamin D3 analog, the IC50 value was determined from a graph relating the optical density at 570 nm to the concentration used. The IC50 value was defined as the concentration of the vitamin D3 analog corresponding to half-maximal reduction in 570 nm absorbance.

[3] = tested on: ZR-75 cells; experiment: Cell proliferation assay in ZR-75 breast cancer cells; assay type: cell-based, human; conditions: for IC50: Homo sapiens, ZR75, 240 h, ZR-75, 10 days, MTT, read-out: IC50 (half-maximal reduction in 570 nm absorbance)
Description: ZR-75 cells are human mammary carcinoma cells that are positive for estrogen receptors. The potential activity of vitamin D3 analogs against breast cancer was assessed from inhibition of proliferation of ZR-75 cells in culture.
as §7, with “ZR-75” for “MCF-7”, “12,500” for “5000”, “24-well” for “96-well”, “RPMI medium” for “Dulbecco's Modified Eagle Medium”, “and” for “700 nM insulin,”, “glutamine.” for “glutamine, 0.1 mM MEM non-essential amino acids and 1 mM sodium pyruvate.”
The IC50 value was defined as the concentration of the vitamin D3 analog corresponding to half-maximal reduction in 570 nm absorbance.

[4] = tested on: postmenopausal osteoporosis; conditions: cited from earlier work
[5] = tested on: steroid-induced bone loss; conditions: 0.5 to 1.0 micrograms/day plus calcium 1000 mg/day, with or without intranasal calcitonin 400 IU/day; cited from earlier work
[6] = tested on: bone; conditions: animal studies; cited from earlier work
[7] = tested on: PTH synthesis; conditions: cited from earlier work
[8] = tested on: murine leukemia; conditions: murine leukemia model systems; cited from earlier work
[9] = cited from earlier work
[10] = Serum calcium in rat renal insufficiency model (7/8 nephrectomy); assay type: in vivo, Female Sprague Dawley rats; design: Final Ca Levels: unit not given here; conditions: for Final Ca Levels: po, seven days, serum
Description: as §1, §2, §3, §4, §5, §6

SMILES: C=C1/C(=C\C=C2/CCC[C@]3(C)[C@@H]([C@H](C)CCCC(C)(C)O)CC[C@@H]23)C[C@@H](O)C[C@@H]1O [1,25(OH)2 vit. D3, 1,25-Dihydroxy-cholecalciferol]
PTH T = 1 - T = 0 ([1]; 0.1 μg/kg (table 2; table 1: 0.2 μg/kg/day)): -66 pg/mL
IC50 [2]: 40 nM
IC50 [3]: 13 nM
lower rate of new vertebral fractures versus elemental calcium 1000 mg/day ([4]; 0.25 microgram twice daily, 3 years, mild to moderate disease): 3 fold
hypercalcaemia ([4]; at recommended dosages): infrequent and mild
therapeutic window: proximity of therapeutic and toxic doses ([4]; human, in vivo): close proximity of therapeutic and toxic doses
tolerability ([4]; overall): well tolerated
steroid-induced bone loss [5]: prevented steroid-induced bone loss
bone anabolic activity [6]: suggested bone anabolic activity
suppressive action on PTH synthesis [7]: direct suppressive action on PTH synthesis
anti-proliferative and differentiating effect [8]: not only an anti-proliferative effect, but also a differentiating effect
hypercalcemia in vivo ([9]; high dose treatment): hypercalcemia observed with high dose treatment
therapeutic ratio ([9]; human usage): poor therapeutic ratio (hypercalciuria and hypercalcemia as well as nephrotoxicity)
hypercalcemic effects ([9]; narrow therapeutic window, especially at high doses): potent hypercalcemic effects

Final Ca Levels ([10]; 0.1 μg/kg/day): 10.20
Final Ca Levels ([10]; 1 μg/kg/day): 10.35
Final Ca Levels ([10]; 10 μg/kg/day): 11.97
elevated calcium levels ([10]; in words): without causing elevated calcium levels
IC50 [2]: 0.8 nM
IC50 [3]: 0.3 nM
SMILES: C=C1/C(=C\C=C2/CCC[C@]3(C)[C@@H](C(CCCC(C)(C)O)CCCC(C)(C)O)CC[C@@H]23)C[C@@H](O)C[C@@H]1O [Formula Ia, (1α,3β,5Z,7E)-21-(3-hydroxy-3-methylbutyl)-9,10-Secocholesta-5,7,10, (19)-triene-1,3,25-triol]
PTH T = 1 - T = 0 ([1]; 0.1 μg/kg/day): 112 pg/mL
PTH T = 1 - T = 0 ([1]; 1 μg/kg/day): -124 pg/mL
PTH T = 1 - T = 0 ([1]; 10 μg/kg/day): -132 pg/mL
suppressing the elevated levels of parathyroid hormone, versus 1,25(OH)2 vit. D3 ([1]; in words): more effective than 1,25(OH)2 vit. D3
potency relative to 1,25-dihydroxy-cholecalciferol in inhibition of MCF-7 growth ([2]; MCF-7): approximately 50 times
potency relative to 1,25-dihydroxy-cholecalciferol in inhibition of ZR-75 growth ([3]; ZR-75): more than 40 times
